Common to all, as to type: cell-based
Experiment [1] deals with herpes simplex virus 1 (HSV-1; HFEM strain). The experiment in a line: Plaque Reduction Test for Herpes Simplex Virus 1. Conditions: Human alphaherpesvirus 1, Vero or MRC-5 cells, read-out: IC₅₀ against HSV-1 virus. Here is the method:
(§1) Vero or MRC-5 cells were grown to confluence in 24 well multi-dishes (well diameter = 1.5cm). The drained cell monolayers were each infected with approximately 50 infectious particles of herpes simplex virus 1 (HSV-1; HFEM strain) or herpes simplex virus 2 (HSV-2; strain MS) in 100µl of phosphate-buffered saline. The virus was adsorbed for 1 hour at room temperature. After adsorption, residual inoculum was removed from each well and replaced with 0.5ml of Eagle's MEM containing 5% newborn calf serum and 0.9% agarose (A37). Once the agarose had set, dilutions of the test compound, which had been prepared in Eagle's MEM (containing 5% newborn calf serum), were added, each well receiving 0.5ml of liquid overlay. The test compound was diluted to give the following series of concentrations: 200, 60, 20, 6....0.06µg/ml; final concentrations in the assay ranged, therefore, between 100µg/ml and 0.03µg/ml. The infected cultures were incubated at 37 °C in a humidified atmosphere of 5% CO₂ until plaques were clearly visible (2 or 3 days for Vero cells, usually 1 day for MRC-5 cells).
(§2) Cultures from 1 and 2 were fixed in formal saline, the agarose overlays were carefully washed off, and then the cell monolayers were stained with carbol fuchsin. A stereo microscope was used to count plaques. The IC₅₀ (concentration of drug which inhibits the number of plaques formed by 50% relative to the number of plaques observed in virus control monolayers) of the test compound was calculated. In addition, the monolayers were examined for evidence of drug-induced cytotoxicity; the minimum concentration at which cytotoxicity occurred was recorded.

Experiment [2] relates to cytomegalovirus (CMV; AD-169 strain). Description: Plaque Reduction Test for Cytomegalovirus. Conditions: Human betaherpesvirus 5, AD169, MRC5, MRC-5 cells, read-out: IC₅₀ against CMV. Here is the method: MRC-5 cells were grown to confluence in 24 well multi-dishes (well diameter = 1.5cm). The drained cell monolayers were each infected with approximately 50 infectious particles of cytomegalovirus (CMV; AD-169 strain) in 100µl of phosphate-buffered saline. The virus wasadsorbed for 1 hour at room temperature. After adsorption, residual inoculum was removed from each well and replaced with 1ml of Eagle's MEM containing 10% heatinactivated foetal calf serum and 0.9% agarose (A37). Once the agarose had set, dilutions of the test compound, which had been prepared in Eagle's MEM (containing 10% heat-inactivated calf serum), wereadded, each well receiving 1ml of liquid overlay. The test compound was diluted to give the following series of concentrations: 200, 60, 20, 6....0.06µg/ml; final concentrations in the assay range, therefore, between 100µg/ml and 0.03µg/ml. The infected cultures were incubated at 37 °C in a humidified atmosphere containing 5% CO₂ until plaques were clearly visible (about 12days). The cultures are fixed in formol saline, the agarose overlays were carefully washed off, and then the cell monolayers were stained with carbol fuchsin. A stereo microscope was used to count plaques. The IC₅₀ (concentration of drug which inhibits the number of plaques formed by 50% relative to the number of plaques observed in virus control monolayers) of the test compound was calculated. In addition, the monolayers were examined for evidence of drug-induced cytotoxicity; the minimum concentration at which cytotoxicity occurs was recorded.
A general note: In a plaque reduction assay, fewer plaques than in the control indicate reduced infectivity or spread.

Experiment [3] deals with varicella zoster virus (VZV; Ellen strain). The experiment in a line: Plaque Reduction Test for Varicella Zoster Virus. Conditions: Human alphaherpesvirus 3, MRC5, MRC-5 cells, read-out: IC₅₀ against VZV. As to the method: MRC-5 cells were grown to confluence in 24 well multi-dishes (well diameter = 1.5cm). The drained cell monolayers were each infected with approximately 50 infectious particles of varicella zoster virus (VZV; Ellen strain) in 100µl of phosphate-buffered saline. The virus was adsorbed for 1 hour at room temperature. After adsorption, residual inoculum was removed from each well and replaced with 0.5ml of Eagle's MEM containing 5% heat-inactivated foetal calf serum and 0.9% agarose (A37). Once the agarose had set, dilutions of the test compound, which had been prepared in Eagle's MEM (containing 5% heat-inactivated foetal calf serum), were added, each well receiving 0.5ml of liquid overlay. The test compound was diluted to give the following series of concentrations: 200, 60, 20, 6....0.06µg/ml; final concentrations in the assay ranged, therefore, between 100µg/ml and 0.03µg/ml. The infected cultures were incubated at 37 °C in a humidified atmosphere of 5% CO₂ until plaques were clearly visible (5 or 6 days).
as §2

The next experiment relates to HIV-1 strain virus. Description: HIV Suppression test in peripheral human lymphocytes (p24 ELISA and viral RNA hybridisation). Particulars: Human immunodeficiency virus 1, Lymphocyte; for inhibition at 1 µM: Concn. 1 µM; for inhibition at 10 µM: Concn. 10 µM. As to the method: Peripheral human lymphocytes were prepared, cultivated, and harvested as above. Following the determination of the lymphocyte surface markers, unstimulated and mitogen stimulated cells were combined in a ratio of 1:2.
Under safety conditions these cells are infected with a standard preparation of HIV. The cells are sedimented by centrifugation. The supernatant was discarded and cells were resuspended in the HIV inoculum.
This inoculum is a liquid suspension of HIV-1 strain virus, pretested and adjusted to a titer that results in a synthesis of viral core protein p24 of >100 ng/ml at day four following infection of human lymphocytes according to the protocol.
3x10⁸ lymphocytes were resuspended in 1 ml HIV inoculum and incubated at 37 °C for 60 minutes. Subsequently, the cells were washed two times with 50 ml of culture medium and resuspended in culture medium containing 10 units/ml of human recombinant interleukin-2 to yield a cell concentration of 2x10⁶ cells/ml. 100µl of this cell suspension was added to each well of the microtiter plates containing the diluted solutions of the compounds. The microtiter plates were cultivated in an incubator with a humidified atmosphere and 5% CO₂ at 37 °C.
Accordingly, a fraction of lymphocytes was mock-infected with the same virus preparation that was heat inactivated (30 minutes at 56 °C) prior to infection.
On each of the days 2,3 and 4 post infection one of the microtiter plates which had been established in triplicate was prepared for determination of viral replication. Viral RNA is determined within the cells whereas the viral core protein p24 was detected in the supernatant of the lymphocyte culture.
Accordingly, 150 µl of supernatant were removed from each well and transferred to the well of a microtiter plate containing 50 µl/well of SDS (sodium dodecylsulfate, 0.08%). These plates were stored frozen. 50 µl of stop solution (1% SDS, 20mM sodium acetate, pH 5.0, and 200 µg/ml heparin) were added to the cells remaining in each well. The plates were stored frozen.
The concentration of p24 synthesized by the HIV infected cells was determined by means of a sandwich ELISA, while the concentration of viral RNA was quantitated by nucleic acid hybridisation, using a ³²P-labelled DNA probe for the gag/pol region of the viral genome. Absolute levels of viral antigen and RNA in drug treated samples were compared with untreated, virus-infected controls and the percentage inhibition calculated.
For orientation: In an ELISA, binding on a coated surface is turned into a signal by an enzyme label.

Experiment [4] deals with herpes simplex virus 2 (HSV-2; strain MS). Description: Plaque Reduction Test for Herpes Simplex Virus 2. Particulars: Human alphaherpesvirus 2, Vero or MRC-5 cells, read-out: IC₅₀ against HSV-2. Here is the method:
as §1, §2

Where [5] appears, read: 72 h, viral RNA, Day 3 after infection, read-out: % Inhibition on Days 3 and 4 after infection Viral RNA Day 3.
The mark [6] stands for this setting: 72 h, viral core protein p24, Day 3 after infection, read-out: % Inhibition on Days 3 and 4 after infection Viral Anitgen Day 3.
[7] abbreviates: 96 h, viral RNA, Day 4 after infection, read-out: % Inhibition on Days 3 and 4 after infection Viral RNA Day 4.
Where [8] appears, read: 96 h, viral core protein p24, Day 4 after infection, read-out: % Inhibition on Days 3 and 4 after infection Viral Anitgen Day 4.

Each structure is given as a SMILES string. ≈ marks a conversion by molar mass, not a printed value. Read-outs that look alike come from different tables or passages of the source.

Usually inhibition stands for the relative decrease from the control value, in per cent. Turning to `Nc1nc2c(ncn2OC[C@@H](CO)OCP(=O)(O)O)c(=O)[nH]1` [Example 1, (R)-9-[3-Hydroxy-2-(phosphonomethoxy)propoxy]quanine], the IC50 in experiment [1] was 7 mg/L (≈ 20.9 µM); in experiment [2], 3 mg/L (≈ 8.95 µM); in experiment [3] it was 17 mg/L (≈ 50.7 µM); in experiment [4], 10 mg/L (≈ 29.8 µM). In addition, the inhibition at 1 µM in the experiment on HIV-1 strain virus (setting [5]) is 73%; in the experiment on HIV-1 strain virus (setting [6]), 100%; in the experiment with HIV-1 strain virus (setting [7]) it was 54%; in the experiment with HIV-1 strain virus (setting [8]) it was 35%.

With `Nc1nc2c(ncn2OC[C@H](CO)OCP(=O)(O)O)c(=O)[nH]1` [Example 4, (S)-9-[3-Hydroxy-2-(phosphonomethoxy)propoxy]quanine], the IC50 turned out to be 25 mg/L (≈ 74.6 µM) in experiment [1], 29 mg/L (≈ 86.5 µM) in experiment [2], 52 mg/L (≈ 155 µM) in experiment [3] and 23 mg/L (≈ 68.6 µM) in experiment [4]. In addition, the inhibition at 1 µM in the experiment with HIV-1 strain virus (setting [5]) worked out at 10%; in the experiment with HIV-1 strain virus (setting [6]), 54%; with HIV-1 strain virus (setting [7]), 14%; with HIV-1 strain virus (setting [8]), 15%.

For the compound `Nc1ncnc2c1ncn2OC[C@@H](CO)OCP(=O)(O)O` [Example 3, (R)-9-[3-Hydroxy-2-(phosphonomethoxy)propoxy]adenine], the inhibition at 10 µM in the experiment with HIV-1 strain virus (setting [5]) was found to be 83%; in the experiment with HIV-1 strain virus (setting [6]) it was 80%; in the experiment with HIV-1 strain virus (setting [7]) it was 90%; with HIV-1 strain virus (setting [8]), 91%.

For the compound `Nc1nc2c(ncn2OC[C@H]2COP(=O)(O)CO2)c(=O)[nH]1` [Example 2, (S)-9-[(2-Hydroxy-2-oxo-1,4,2-dioxaphosphorinan-5-yl)methoxy]quanine], the IC50 turned out to be 21 mg/L (≈ 66.2 µM) in experiment [1], 3 mg/L (≈ 9.46 µM) in experiment [2], 13 mg/L (≈ 41 µM) in experiment [3] and 15 mg/L (≈ 47.3 µM) in experiment [4]. Besides, the inhibition at 10 µM in the experiment with HIV-1 strain virus (setting [5]) amounted to 92%; with HIV-1 strain virus (setting [6]) it was 100%; in the experiment with HIV-1 strain virus (setting [7]), 32%; with HIV-1 strain virus (setting [8]), 33%.

As to `Nc1nc2c(ncn2OC[C@@H]2COP(=O)(O)CO2)c(=O)[nH]1` [Example 5, (R)-9-[(2-Hydroxy-2-oxo-1,4,2-dioxaphosphorinan-5-yl)methoxy]quanine], the IC50 in experiment [1] stood at 73 mg/L (≈ 230 µM); in experiment [2], 17 mg/L (≈ 53.6 µM); in experiment [3], 24 mg/L (≈ 75.7 µM); in experiment [4] it was 36 mg/L (≈ 113 µM). The inhibition at 10 µM in the experiment with HIV-1 strain virus (setting [5]) came out at 64%; in the experiment with HIV-1 strain virus (setting [6]), 50%; in the experiment on HIV-1 strain virus (setting [7]) it was 0%; with HIV-1 strain virus (setting [8]), 7%.

(Values after patent publication EP0405748A1, “Phosphonoderivative of purine with antiviral activity” (Beecham Group p.l.c., priority 1989, dated 1991).)
